Consider 13 molecules from US11866431B2, “Bicyclic compounds” (Vivace Therapeutics, Inc., priority 2018, dated 2024).

Structures are written as SMILES. Bounds are passed on as bounds.

This test has as its system 8XTBD luciferase reporter (YAP reporter) in HEK293T cells. Nature of the test: YAP Reporter Assay. Conditions: Homo sapiens, HEK-293T; HEK293T cells stably transfected with 8XTBD luciferase reporter and pRLTK; 24-hr incubation; top concentration 3 μM; read-out: Firefly Luciferase IC50. The class given is cell-based. Summed up:
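HEK293T cells stably carrying 8XTBD firefly luciferase and TK-renilla (3×10^3 cells/well) dosed 3-4 h after plating with compounds from 3 μM final, 1:3 dilution, 10 points, quadruplicates. After 24 h at 37° C, Dual-Glo readings gave IC50 and maximum inhibition reported separately for firefly and renilla.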
The IC50 is the point on the concentration scale where inhibition reaches its midpoint. Take `C[C@H](NC(=O)c1ccc2c(-c3ccc(C(F)(F)F)cc3)cccc2c1)c1ncc[nH]1` [Compound 243, (S)—N-(1-(1H-imidazol-2-yl)ethyl)-5-(4-(trifluoromethyl)phenyl)-2-naphthamide]: the IC50 was in the range of 0.1 to 1 µM.
For the molecule `CNCC(C)NC(=O)c1ccc2c(-c3ccc(C(F)(F)F)cc3)cccc2c1` (stereo not shown) [Compound 92, N-(1-(methylamino)propan-2-yl)-5-(4-(trifluoromethyl)phenyl)-2-naphthamide], the IC50 lay within 0.1 to 1 µM.
`CC(C)NC(=O)c1ccc2c(-c3ccc(C(F)(F)F)cc3)cc(=O)n(C)c2c1` [Compound 306, N-Isopropyl-1-methyl-2-oxo-4-(4-(trifluoromethyl)phenyl)-1,2-dihydroquinoline-7-carboxamide]: the IC50 was in the range of 0.1 to 1 µM.
On to `C[C@H](CN1CCCC1)NC(=O)c1ccc2c(-c3ccc(C(F)(F)F)cc3)cccc2c1` [Compound 67, (R)—N-(1-(pyrrolidin-1-yl)propan-2-yl)-5-(4-(trifluoromethyl)phenyl)-2-naphthamide], for which the IC50 was 0.1 to 1 µM.
On to `COCCOc1cccc(CNC(=O)c2ccc3c(-c4ccc(C(F)(F)F)cc4)cccc3c2)c1` [Compound 208, N-(3-(2-methoxyethoxy)benzyl)-5-(4-(trifluoromethyl)phenyl)-2-naphthamide], for which the IC50 is < 0.1 µM.
Consider `C[C@H](NC(=O)c1ccc2c(-c3ccc(C(F)(F)F)cc3)cccc2c1)c1cn(C)cn1` [Compound 195, (S)—N-(1-(1-methyl-1H-imidazol-4-yl)ethyl)-5-(4-(trifluoromethyl)phenyl)-2-naphthamide], for which the IC50 was < 0.1 µM.
In the case of `C[C@H](CCN(C)C)NC(=O)c1cnc2c(-c3ccc(C(F)(F)F)cc3)cccc2c1` [Compound 319, N-[(1R)-3-(Dimethylamino)-1-methyl-propyl]-8-[4-(trifluoromethyl)phenyl]quinoline-3-carboxamide] it was 0.1 to 1 µM.
Regarding `CC(C)NC(=O)c1ccc2c(-c3ccc(C(F)(F)F)cc3)cc(Br)c(N)c2c1` [Compound 31, 8-amino-7-bromo-N-isopropyl-5-(4-(trifluoromethyl)phenyl)-2-naphthamide], the 50% inhibitory concentration (IC50) was < 0.1 µM.
`CC(C)NC(=O)c1cnc2c(-c3ccc(C(F)(F)F)cc3)cccc2c1` [Compound 4, N-isopropyl-8-(4-(trifluoromethyl)phenyl)quinoline-3-carboxamide]: the IC50 is < 0.1 µM.
`C[C@@H](NC(=O)c1ccc2c(-c3ccc(C(F)(F)F)cc3)cccc2c1)c1cc(N)ccn1` [Compound 213, (R)—N-(1-(4-aminopyridin-2-yl)ethyl)-5-(4-(trifluoromethyl)phenyl)-2-naphthamide]: the half-inhibitory concentration (IC50) was in the range of 0.1 to 1 µM.
Turning to `CC(C)NC(=O)c1ccc2c(-c3ccc(C(F)(F)F)cc3)cc(S(C)(=O)=O)cc2c1` [Compound 46, N-isopropyl-7-methylsulfonyl-5-[4-(trifluoromethyl)phenyl]naphthalene-2-carboxamide], the IC50 was < 0.1 µM.
For the molecule `C#CCNC(=O)c1ccc2c(-c3ccc(C(F)(F)F)cc3)cccc2c1` [Compound 111, N-(prop-2-yn-1-yl)-5-(4-(trifluoromethyl)phenyl)-2-naphthamide], the half-inhibitory concentration (IC50) is < 0.1 µM.
Regarding `CCc1cc(-c2ccc(C(F)(F)F)cc2)c2ccc(C(=O)NC(C)C)cc2c1` [Compound 47, 7-ethyl-N-isopropyl-5-(4-(trifluoromethyl)phenyl)-2-naphthamide], the IC50 is < 0.1 µM.
